Measured values taken from PMC8318231, “Rate-of-Kill (RoK) assays to triage large compound sets for Chagas disease drug discovery: Application to GSK Chagas Box” (PLoS Neglected Tropical Diseases, 2021).

Key:
[1] = system: H9c2 (rat cardiomyocytes); test: RoK assay, number of host cells nuclei (drug-related cytotoxicity, H9c2 output, Cmin_Tox); details: for Cmin_Tox: H9c2 host cells
Method: For this high-content intracellular imaging assay, H9c2 cells were seeded in 225 cm^2 T- FLASK in DMEM with 10% FBS for 4 h to allow attachment. T. cruzi trypomastigotes, collected at days 5 to 8 after infection from LLC-MK2 parasite infected cultures, were allowed to swim out for 4 h at 37°C from a centrifuged pellet (1,600 x g / 10 min). Trypomastigotes were then collected and counted in a CASY Cell Counter using the 60 μm capillary. […] Cells were washed once with PBS before incubation of the infected H9c2 monolayer with trypsin (Life-Technologies) to detach cells from the flask. Cells were counted in a CASY Cell Counter, using the 150 μm capillary, and their density set at 5 x 10^4 cells/mL in supplemented DMEM. Infected H9c2 were dispensed into 384-well plates at 50 μL per well using a Multidrop Combi dispenser. Control wells used to determine a 100% parasitic growth (full 6th column of each plate) were left untreated, whereas not infected cells were added in the control wells used as 0% parasite growth (or 100% parasite growth inhibition; full 18th column of each plate). The four plates corresponding to each RoK assay were predispensed for the same mother plate. […] Cultures were then fixed and stained with 50 μL per well of a PBS solution containing 4% formaldehyde and 2 μM DRAQ5 DNA dye (BioStatus, UK). Then plates were read in a PerkinElmer Opera Phenix using a 20x objective, 3 fields per well. DRAQ5 signal was detected using 640 nm excitation laser and a 690/50 nm emission detection filter. Automated image analysis was performed with a script developed on Acapella High Content Imaging and Analysis Software (PerkinElmer). Two outputs were provided for each sample well: (1) number of host cells nuclei to determine drug-related cytotoxicity (aka H9c2) and (2) number of amastigotes per cell as infection level measurement (aka AM/CELL). Each output is plotted as a time course for each compound at every concentration. This assay was adapted from Alonso-Padilla et al. and Peña et al..
• ME (Maximum Effect) is the maximum percentage of parasite burden reduction reached by any compound concentration. Compounds that decrease the initial parasite load will show a positive value of ME, whereas compounds that allow the progression of infection will render a negative ME value. […] It is calculated for the MCC50 (t50%_MCC50) and for the maximum concentration (t50%_Cmax). […] The value of this parameter is not either interpolated or extrapolated, and it refers to the first experimental time-course point at which a 50% of effect is reached or exceeded. • tlag defines the time elapsed for one particular concentration to reduce parasite burden between two consecutive points at any moment of the time course. It is calculated for the MCC50 (tlag_MCC50) and for the maximum concentration (tlag_Cmax). The value of this parameter is not either interpolated or extrapolated, and it refers to the first experimental time-course point of a positive slope in the normalised plot (i.e. %Cidal_Response). • Cmin_Tox (Minimal CytoToxic Concentration) is the lowest compound concentration that is reducing the number of host mammalian cells below 50% of initial cell density. Cytotoxic compounds may mislead a bona fide antiparasitic action. Therefore, this descriptor is used to flag this kind of compounds and warn about the genuine meaning of the rest of descriptors.

[2] = system: T. cruzi Tulahuen trypomastigotes; test: T. cruzi trypomastigote assay (Cell Titer-Glo viability, ATP luminescence); format: cell-based, Trypanosoma cruzi; details: for Trypomastigotes pIC50 48 hours: 48 hours incubation; for Trypomastigotes pIC50 48 hours / Trypomastigotes pIC50 72 hours: pIC50 = -log10 IC50 in molar units; for Trypomastigotes pIC50 72 hours: 72 hours incubation; for 72 pIC50 (trypomastigotes, raw data of Fig 1D): 72 hours, plotted values, censored values given without sign; for 48 pIC50 / 72 pIC50: trypomastigote assay; for 48 pIC50: 48 h; for 72 pIC50: 72 h
Outline: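 Tulahuen trypomastigotes from infected LLC-MK2 culture supernatants (days 5–8) plated at 5 × 10^4 per well in DMEM/2% FBS with compound at 5 μM single-shot final or in dose response. Viability by CellTiter-Glo ATP luminescence after 10 min at room temperature, normalised to no-cell (100%) and DMSO (0%) controls.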

## O=C(NC1C(=O)N(c2ccccc2)C1c1cccnc1)c1ccc(Cl)s1 (stereo not drawn) [TCMDC-143324]
[1]
  Cmin_Tox: >50 µM
[2]
  Trypomastigotes pIC50 48 hours: < 4.3
  Trypomastigotes pIC50 72 hours: < 4.3
  72 pIC50 (trypomastigotes, raw data of Fig 1D): < 4.3
[2]; figure 1A
  48 pIC50: < 4.3
  72 pIC50: < 4.3
[2]; figure 1B
  72 pIC50: < 4.3

## CCn1nccc1CN(C)C(=O)C=Cc1ccc(Cl)cc1 [TCMDC-143325]
[1]
  Cmin_Tox: >50 µM
[2]
  Trypomastigotes pIC50 48 hours: < 4.3
  Trypomastigotes pIC50 72 hours: < 4.3
  72 pIC50 (trypomastigotes, raw data of Fig 1D): < 4.3
[2]; figure 1A
  48 pIC50: < 4.3
  72 pIC50: < 4.3
[2]; figure 1B
  72 pIC50: < 4.3

## Cc1[nH]nc2c1C(c1ccc(OCc3ccccc3F)cc1)SCC(=O)N2 (stereo not drawn) [TCMDC-143328]
[1]
  Cmin_Tox: >50 µM
[2]
  Trypomastigotes pIC50 48 hours: 5.1
  Trypomastigotes pIC50 72 hours: 5.1
  72 pIC50 (trypomastigotes, raw data of Fig 1D): 5.1
[2]; figure 1A
  48 pIC50: 5.1
  72 pIC50: 5.1
[2]; figure 1B
  72 pIC50: 5.1

## CCCN(Cc1ccc(OC)c(OC)c1)Cc1cc(=O)c2c(C)cc(C)cc2[nH]1 [TCMDC-143331]
[1]
  Cmin_Tox: >50 µM
[2]; 48 and 72 hours
  activity in trypomastigotes assay (in words): active
[2]
  Trypomastigotes pIC50 48 hours: 5.4
  Trypomastigotes pIC50 72 hours: 5.6

## CC(C)(C)C(Cn1ccnc1)NC(=O)c1ccc2nc(C3CC3)oc2c1 (stereo not drawn) [TCMDC-143336]
[1]
  Cmin_Tox: >50 µM
[2]
  Trypomastigotes pIC50 48 hours: 5
  Trypomastigotes pIC50 72 hours: < 4.3

## c1ccc(CCNCc2cncc3nc(-c4cnccn4)n(C4CCCCC4)c23)cc1 [TCMDC-143346]
[1]
  Cmin_Tox: >50 µM
[2]
  Trypomastigotes pIC50 48 hours: < 4.3
  Trypomastigotes pIC50 72 hours: < 4.3
  72 pIC50 (trypomastigotes, raw data of Fig 1D): < 4.3
[2]; figure 1A
  48 pIC50: < 4.3
  72 pIC50: < 4.3
[2]; figure 1B
  72 pIC50: < 4.3

## CC(=O)Nc1ccc(-c2noc(CC3CCCN(Cc4cccc(F)c4C)C3)n2)cc1 (stereo not drawn) [TCMDC-143362]
[1]
  Cmin_Tox: 50.0 µM
[2]
  Trypomastigotes pIC50 48 hours: 5.2
  Trypomastigotes pIC50 72 hours: 5.3

## N#Cc1ccc(S(=O)(=O)N2CCC3(CCN(c4ccccc4)C3=O)CC2)cc1 [TCMDC-143371]
[1]
  Cmin_Tox: >50 µM
[2]
  Trypomastigotes pIC50 48 hours: < 4.3
  Trypomastigotes pIC50 72 hours: < 4.3
  72 pIC50 (trypomastigotes, raw data of Fig 1D): < 4.3
[2]; figure 1A
  48 pIC50: < 4.3
  72 pIC50: < 4.3
[2]; figure 1B
  72 pIC50: < 4.3

## CC(C)Nc1nccc(-c2c(-c3ccc(F)cc3)ncn2C2CCOCC2)n1 [TCMDC-143379]
[1]
  Cmin_Tox: >50 µM
[2]
  Trypomastigotes pIC50 48 hours: < 4.3
  Trypomastigotes pIC50 72 hours: < 4.3
  72 pIC50 (trypomastigotes, raw data of Fig 1D): < 4.3
[2]; figure 1A
  48 pIC50: < 4.3
  72 pIC50: < 4.3
[2]; figure 1B
  72 pIC50: < 4.3

## O=C(N1CCc2ccccc2CC1)C1(C(=O)N2CCC(n3c(=O)[nH]c4ncccc43)CC2)CC1.O=C(O)C(F)(F)F [TCMDC-143381]
[1]
  Cmin_Tox: >50 µM
[2]
  Trypomastigotes pIC50 48 hours: < 4.3
  Trypomastigotes pIC50 72 hours: < 4.3
  72 pIC50 (trypomastigotes, raw data of Fig 1D): < 4.3
[2]; figure 1A
  48 pIC50: < 4.3
  72 pIC50: < 4.3
[2]; figure 1B
  72 pIC50: < 4.3

## COc1ccc2ncc(=O)n(CCN3CCOC(CNCc4ccc(C(F)(F)F)cc4F)C3)c2n1 (stereo not drawn) [TCMDC-143384]
[1]
  Cmin_Tox: >50 µM
[2]
  Trypomastigotes pIC50 48 hours: < 4.3
  Trypomastigotes pIC50 72 hours: < 4.3
  72 pIC50 (trypomastigotes, raw data of Fig 1D): < 4.3
[2]; figure 1A
  48 pIC50: < 4.3
  72 pIC50: < 4.3
[2]; figure 1B
  72 pIC50: < 4.3

## CS(=O)(=O)c1cccc(CNC(=O)c2cncc(N3CCN(c4ccc(F)cc4)CC3)c2)c1.O=C(O)C(F)(F)F.O=C(O)C(F)(F)F.O=C(O)C(F)(F)F [TCMDC-143385]
[1]
  Cmin_Tox: >50 µM
[2]
  Trypomastigotes pIC50 48 hours: < 4.3
  Trypomastigotes pIC50 72 hours: < 4.3
  72 pIC50 (trypomastigotes, raw data of Fig 1D): < 4.3
[2]; figure 1A
  48 pIC50: < 4.3
  72 pIC50: < 4.3
[2]; figure 1B
  72 pIC50: < 4.3

## O[C@H]1CC[C@H](Nc2nccc(-c3sc(C4CCOCC4)nc3-c3ccc(F)c(F)c3)n2)CC1 [TCMDC-143387]
[1]
  Cmin_Tox: 16.7 µM
[2]
  Trypomastigotes pIC50 48 hours: 4.5
  Trypomastigotes pIC50 72 hours: < 4.3

## O=C(O)C(F)(F)F.O=c1oc2ccccc2n1C1CCN(Cc2ccccc2-c2cccnc2)CC1 [TCMDC-143389]
[1]
  Cmin_Tox: >50 µM
[2]
  Trypomastigotes pIC50 48 hours: < 4.3
  Trypomastigotes pIC50 72 hours: < 4.3
  72 pIC50 (trypomastigotes, raw data of Fig 1D): < 4.3
[2]; figure 1A
  48 pIC50: < 4.3
  72 pIC50: < 4.3
[2]; figure 1B
  72 pIC50: < 4.3

## Cc1c(C(C)NC(=O)Nc2cccc(Cl)c2)sc2ncnn12 (stereo not drawn) [TCMDC-143405]
[1]
  Cmin_Tox: >50 µM
[2]
  Trypomastigotes pIC50 48 hours: < 4.3
  Trypomastigotes pIC50 72 hours: < 4.3
  72 pIC50 (trypomastigotes, raw data of Fig 1D): < 4.3
[2]; figure 1A
  48 pIC50: < 4.3
  72 pIC50: < 4.3
[2]; figure 1B
  72 pIC50: < 4.3

## O=C(c1cccc(Cl)c1Cl)N1CCn2c1nc(-c1ccncc1)cc2=O [TCMDC-143409]
[1]
  Cmin_Tox: >50 µM
[2]
  Trypomastigotes pIC50 48 hours: < 4.3
  Trypomastigotes pIC50 72 hours: < 4.3
  72 pIC50 (trypomastigotes, raw data of Fig 1D): < 4.3
[2]; figure 1A
  48 pIC50: < 4.3
  72 pIC50: < 4.3
[2]; figure 1B
  72 pIC50: < 4.3

## CS(=O)(=O)c1cccc(-c2cnc(N)c3c(-c4ccc(CO)cc4)csc23)c1.O=C(O)C(F)(F)F [TCMDC-143410]
[1]
  Cmin_Tox: >50 µM
[2]
  Trypomastigotes pIC50 48 hours: 4.5
  Trypomastigotes pIC50 72 hours: 4.4

## O=C(NCCc1ccccn1)C(c1cn[nH]c1)N1CCN(c2ccc(Cl)c(Cl)c2)CC1 (stereo not drawn) [TCMDC-143411]
[1]
  Cmin_Tox: >50 µM
[2]
  Trypomastigotes pIC50 48 hours: < 4.3
  Trypomastigotes pIC50 72 hours: < 4.3
  72 pIC50 (trypomastigotes, raw data of Fig 1D): < 4.3
[2]; figure 1A
  48 pIC50: < 4.3
  72 pIC50: < 4.3
[2]; figure 1B
  72 pIC50: < 4.3

## COc1cc(-c2nc(N3CCOCC3)sc2-c2ccnc(NC3CCOCC3)n2)ccc1Cl.O=C(O)C(F)(F)F [TCMDC-143414]
[1]
  Cmin_Tox: >50 µM
[2]
  Trypomastigotes pIC50 48 hours: < 4.3
  Trypomastigotes pIC50 72 hours: < 4.3
  72 pIC50 (trypomastigotes, raw data of Fig 1D): < 4.3
[2]; figure 1A
  48 pIC50: < 4.3
  72 pIC50: < 4.3
[2]; figure 1B
  72 pIC50: < 4.3

## CC(=Cc1ccccc1)CN1CCC(=O)N(Cc2cccnc2)CC1 [TCMDC-143421]
[1]
  Cmin_Tox: >50 µM
[2]
  Trypomastigotes pIC50 48 hours: 4.7
  Trypomastigotes pIC50 72 hours: < 4.3

## CC(C)Oc1cccc(N2CCC(C(=O)N3CCCN(C(C)C)CC3)CC2)c1.Cl [TCMDC-143432]
[1]
  Cmin_Tox: >50 µM
[2]
  Trypomastigotes pIC50 48 hours: < 4.3
  Trypomastigotes pIC50 72 hours: < 4.3
  72 pIC50 (trypomastigotes, raw data of Fig 1D): < 4.3
[2]; figure 1A
  48 pIC50: < 4.3
  72 pIC50: < 4.3
[2]; figure 1B
  72 pIC50: < 4.3

## CCN(Cc1ccncc1)Cc1ccc(NC(=O)c2cc(-c3ccc(F)cc3)n[nH]2)cc1 [TCMDC-143433]
[1]
  Cmin_Tox: >50 µM
[2]
  Trypomastigotes pIC50 48 hours: 4.9
  Trypomastigotes pIC50 72 hours: 4.5

## COc1cccc(CCNC(=O)C(c2cn[nH]c2)N2CCN(c3ccc(Cl)cc3)CC2)c1 (stereo not drawn) [TCMDC-143434]
[1]
  cytotoxicity versus host cells (in words): hints of cytotoxicity even at low concentrations
  Cmin_Tox: >50 µM
[2]
  Trypomastigotes pIC50 48 hours: 4.4
  Trypomastigotes pIC50 72 hours: 4.5

## CC(C)c1cc(C(=O)N2CCCC(c3cc4ncccc4[nH]3)C2)on1 (stereo not drawn) [TCMDC-143439]
[1]
  Cmin_Tox: >50 µM
[2]
  Trypomastigotes pIC50 48 hours: 5.3
  Trypomastigotes pIC50 72 hours: 5.3
  72 pIC50 (trypomastigotes, raw data of Fig 1D): 5.3
[2]; figure 1A
  48 pIC50: 5.3
  72 pIC50: 5.3
[2]; figure 1B
  72 pIC50: 5.3
